# Test results published in patent US11331299B2, “Medicinal use of serrulatane diterpenes” (The University of Sydney, priority 2016, dated 2022).
# Where two headings read alike, the source gives them in different places.
# System: 280 human cancer cell lines
# Assay: OncoPanel cell proliferation assay (10-day)
# Type: cell-based
# Conditions: Homo sapiens; for IC50: read-out: Cell Count IC50; for EC50: read-out: Cell Count EC50; for GI50: read-out: Cell Count GI50
# [1] = Caov-3, CaOV3, Female GU - Ovary
# [2] = ChaGo-K-1, ChaGoK1, Lung - NSCLC
# [3] = D341 Med, CNS - Medulloblastoma
# [4] = Detroit 562, Detroit 562, Head and Neck
# [5] = DoTc2-4510, DoTc2 4510, Lymphoma
# [6] = G292, G-292, clone A141B1, Soft Tissue - Osteosarcoma
# [7] = HEL 92.1.7, HEL-92-1-7, Leukemia
# [8] = HOS, Soft Tissue - Osteosarcoma
# [9] = HT-1080, HT-1080, Soft Tissue - Sarcoma
# [10] = HUH-6-clone5, HUH-6 Clone 5, Liver
# [11] = Hs 821.T, Soft Tissue - Sarcoma
# [12] = Hs 888.Sk, Soft Tissue - Osteosarcoma
compound,measurement,setting,value
"CC(C)=CCC[C@H](CO)[C@@H]1CC[C@@H](C)c2c1cc(C)c(O)c2O [Compound 1, 7,8,18-trihydroxyserrulat-14-ene]",IC50,"Calu-6, Calu6, Lung - NSCLC",9240 nM
same,EC50,[1],1910 nM
same,GI50,[1],1850 nM
same,IC50,[1],1920 nM
same,EC50,"Capan-2, Capan-2, Pancreas",1330 nM
same,GI50,"Capan-2, Capan-2, Pancreas",1320 nM
same,IC50,"Capan-2, Capan-2, Pancreas",1330 nM
same,EC50,[2],1530 nM
same,GI50,[2],1530 nM
same,IC50,[2],1540 nM
same,EC50,[3],9090 nM
same,GI50,[3],9370 nM
same,IC50,[3],9460 nM
same,EC50,"DB, Lymphoma",2100 nM
same,GI50,"DB, Lymphoma",2090 nM
same,IC50,"DB, Lymphoma",2100 nM
same,EC50,"DBTRG-05MG, CNS - Glioma",2650 nM
same,GI50,"DBTRG-05MG, CNS - Glioma",2640 nM
same,IC50,"DBTRG-05MG, CNS - Glioma",2660 nM
same,EC50,"DK-MG, CNS - Glioma",6160 nM
same,GI50,"DK-MG, CNS - Glioma",6120 nM
same,IC50,"DK-MG, CNS - Glioma",6410 nM
same,EC50,"DLD-1, DLD-1, Colon",2960 nM
same,GI50,"DLD-1, DLD-1, Colon",2960 nM
same,IC50,"DLD-1, DLD-1, Colon",2960 nM
same,EC50,"DMS-53, DMS53, Lung - SCLC",810 nM
same,GI50,"DMS-53, DMS53, Lung - SCLC",770 nM
same,IC50,"DMS-53, DMS53, Lung - SCLC",810 nM
same,EC50,"DMS-114, DMS114, Lung - SCLC",2770 nM
same,GI50,"DMS-114, DMS114, Lung - SCLC",2570 nM
same,IC50,"DMS-114, DMS114, Lung - SCLC",2770 nM
same,EC50,"DOHH-2, DOHH-2, Lymphoma",1410 nM
same,GI50,"DOHH-2, DOHH-2, Lymphoma",1410 nM
same,IC50,"DOHH-2, DOHH-2, Lymphoma",1410 nM
same,EC50,"DU-145, DU145, Prostate",2800 nM
same,GI50,"DU-145, DU145, Prostate",2780 nM
same,IC50,"DU-145, DU145, Prostate",2800 nM
same,EC50,"Daoy, CNS - Medulloblastoma",1060 nM
same,GI50,"Daoy, CNS - Medulloblastoma",1060 nM
same,IC50,"Daoy, CNS - Medulloblastoma",1060 nM
same,EC50,"Daudi, Lymphoma",1840 nM
same,GI50,"Daudi, Lymphoma",1840 nM
same,IC50,"Daudi, Lymphoma",1840 nM
same,EC50,[4],1960 nM
same,GI50,[4],1960 nM
same,IC50,[4],1970 nM
same,EC50,[5],1030 nM
same,GI50,[5],1010 nM
same,IC50,[5],1030 nM
same,EC50,"EB2, Lymphoma",6470 nM
same,GI50,"EB2, Lymphoma",6450 nM
same,IC50,"EB2, Lymphoma",6490 nM
same,EC50,"EB-3, Lymphoma",3560 nM
same,GI50,"EB-3, Lymphoma",3560 nM
same,IC50,"EB-3, Lymphoma",3560 nM
same,EC50,"EFM-19, EFM-19, Breast",1610 nM
same,GI50,"EFM-19, EFM-19, Breast",1540 nM
same,IC50,"EFM-19, EFM-19, Breast",1610 nM
same,EC50,"EM-2, Leukemia",2390 nM
same,GI50,"EM-2, Leukemia",2370 nM
same,IC50,"EM-2, Leukemia",2390 nM
same,EC50,"FaDu, Head and Neck",870 nM
same,GI50,"FaDu, Head and Neck",870 nM
same,IC50,"FaDu, Head and Neck",870 nM
same,EC50,[6],4550 nM
same,GI50,[6],4410 nM
same,IC50,[6],4570 nM
same,EC50,"G-361, G-361, Skin (Melanoma)",1790 nM
same,GI50,"G-361, G-361, Skin (Melanoma)",1770 nM
same,IC50,"G-361, G-361, Skin (Melanoma)",1790 nM
same,EC50,"G-401, G-401, Kidney",4000 nM
same,GI50,"G-401, G-401, Kidney",3990 nM
same,IC50,"G-401, G-401, Kidney",4000 nM
same,EC50,"GA-10, GA-10, Lymphoma",1930 nM
same,GI50,"GA-10, GA-10, Lymphoma",1940 nM
same,IC50,"GA-10, GA-10, Lymphoma",1940 nM
same,EC50,"H4, CNS - Glioma",2770 nM
same,GI50,"H4, CNS - Glioma",2770 nM
same,IC50,"H4, CNS - Glioma",2770 nM
same,EC50,"HCT-15, HCT-15, Colon",1840 nM
same,GI50,"HCT-15, HCT-15, Colon",1830 nM
same,IC50,"HCT-15, HCT-15, Colon",1840 nM
same,EC50,"HCT-116, HCT-116, Colon",1750 nM
same,GI50,"HCT-116, HCT-116, Colon",1750 nM
same,IC50,"HCT-116, HCT-116, Colon",1750 nM
same,EC50,"HEC-1-A, Female GU - Uterus",2570 nM
same,GI50,"HEC-1-A, Female GU - Uterus",2560 nM
same,IC50,"HEC-1-A, Female GU - Uterus",2570 nM
same,EC50,[7],13900 nM
same,GI50,[7],13900 nM
same,IC50,[7],13900 nM
same,EC50,"HLE, Liver",4620 nM
same,GI50,"HLE, Liver",4590 nM
same,IC50,"HLE, Liver",4630 nM
same,EC50,"HLF, Liver",4470 nM
same,GI50,"HLF, Liver",4450 nM
same,IC50,"HLF, Liver",4480 nM
same,EC50,"HMCB, Skin (Melanoma)",1370 nM
same,GI50,"HMCB, Skin (Melanoma)",1360 nM
same,IC50,"HMCB, Skin (Melanoma)",1370 nM
same,EC50,[8],960 nM
same,GI50,[8],960 nM
same,IC50,[8],960 nM
same,EC50,"HPAF-II, Pancreas",1380 nM
same,GI50,"HPAF-II, Pancreas",1370 nM
same,IC50,"HPAF-II, Pancreas",1380 nM
same,EC50,"HT1197, HT-1197, Bladder",2310 nM
same,GI50,"HT1197, HT-1197, Bladder",2280 nM
same,IC50,"HT1197, HT-1197, Bladder",2340 nM
same,EC50,"HT, Lymphoma",1520 nM
same,GI50,"HT, Lymphoma",1510 nM
same,IC50,"HT, Lymphoma",1530 nM
same,EC50,"HT-3, Female GU - Cervix",3880 nM
same,GI50,"HT-3, Female GU - Cervix",3840 nM
same,IC50,"HT-3, Female GU - Cervix",3890 nM
same,EC50,"HT-29, HT-29, Colon",4010 nM
same,GI50,"HT-29, HT-29, Colon",4000 nM
same,IC50,"HT-29, HT-29, Colon",4010 nM
same,EC50,[9],960 nM
same,GI50,[9],960 nM
same,IC50,[9],960 nM
same,EC50,"HT-1376, HT1376, Bladder",1450 nM
same,GI50,"HT-1376, HT1376, Bladder",1430 nM
same,IC50,"HT-1376, HT1376, Bladder",1460 nM
same,EC50,[10],1520 nM
same,GI50,[10],1510 nM
same,IC50,[10],1520 nM
same,EC50,"HeLa, Female GU - Cervix",2990 nM
same,GI50,"HeLa, Female GU - Cervix",2980 nM
same,IC50,"HeLa, Female GU - Cervix",2990 nM
same,EC50,"HepG2, HepG2, Liver",820 nM
same,GI50,"HepG2, HepG2, Liver",810 nM
same,IC50,"HepG2, HepG2, Liver",820 nM
same,EC50,"Hs 229.T, Lung - NSCLC",2880 nM
same,GI50,"Hs 229.T, Lung - NSCLC",2890 nM
same,IC50,"Hs 229.T, Lung - NSCLC",2940 nM
same,EC50,"Hs 294T, Skin (Melanoma)",2640 nM
same,GI50,"Hs 294T, Skin (Melanoma)",2590 nM
same,IC50,"Hs 294T, Skin (Melanoma)",2640 nM
same,EC50,"Hs 445, Hs 445, Lymphoma",1300 nM
same,GI50,"Hs 445, Hs 445, Lymphoma",1310 nM
same,IC50,"Hs 445, Hs 445, Lymphoma",1320 nM
same,EC50,"Hs 611.T, Lymphoma",2920 nM
same,GI50,"Hs 611.T, Lymphoma",2910 nM
same,IC50,"Hs 611.T, Lymphoma",2940 nM
same,EC50,"Hs 683, Hs 683, CNS - Glioma",4900 nM
same,GI50,"Hs 683, Hs 683, CNS - Glioma",4760 nM
same,IC50,"Hs 683, Hs 683, CNS - Glioma",4910 nM
same,EC50,"Hs 688(A).T, Skin (Melanoma)",1330 nM
same,GI50,"Hs 688(A).T, Skin (Melanoma)",1270 nM
same,IC50,"Hs 688(A).T, Skin (Melanoma)",1440 nM
same,EC50,"Hs746T, HS 746T, Stomach",5580 nM
same,GI50,"Hs746T, HS 746T, Stomach",4640 nM
same,IC50,"Hs746T, HS 746T, Stomach",5740 nM
same,EC50,"Hs766T, Hs 766T, Pancreas",1610 nM
same,GI50,"Hs766T, Hs 766T, Pancreas",1540 nM
same,IC50,"Hs766T, Hs 766T, Pancreas",1610 nM
same,EC50,[11],4220 nM
same,GI50,[11],1800 nM
same,IC50,[11],4220 nM
same,EC50,[12],2200 nM
same,GI50,[12],2050 nM
same,IC50,[12],2380 nM
same,EC50,"Hs 934.T, Skin (Melanoma)",2530 nM
same,GI50,"Hs 934.T, Skin (Melanoma)",2340 nM
same,IC50,"Hs 934.T, Skin (Melanoma)",3270 nM
same,EC50,"Hs 936.T(C1), Skin (Melanoma)",2000 nM
same,GI50,"Hs 936.T(C1), Skin (Melanoma)",1970 nM
same,IC50,"Hs 936.T(C1), Skin (Melanoma)",2000 nM
same,EC50,"Hs-578T, Hs 578T, Breast",4740 nM
same,GI50,"Hs-578T, Hs 578T, Breast",4680 nM
same,IC50,"Hs-578T, Hs 578T, Breast",4760 nM
same,EC50,"HuCCT-1, HuCCT1, Liver",2480 nM
same,GI50,"HuCCT-1, HuCCT1, Liver",2480 nM
same,IC50,"HuCCT-1, HuCCT1, Liver",2480 nM
same,EC50,"HuP-T4, HuP-T4, Pancreas",4520 nM
same,GI50,"HuP-T4, HuP-T4, Pancreas",4530 nM
same,IC50,"HuP-T4, HuP-T4, Pancreas",4540 nM
same,EC50,"J82, Bladder",1060 nM
same,GI50,"J82, Bladder",1050 nM
same,IC50,"J82, Bladder",1060 nM
same,EC50,"JAR, Placenta",12200 nM
same,GI50,"JAR, Placenta",12200 nM
same,IC50,"JAR, Placenta",12200 nM
same,EC50,"JEG-3, JEG-3, Placenta",4330 nM
same,GI50,"JEG-3, JEG-3, Placenta",4320 nM
same,IC50,"JEG-3, JEG-3, Placenta",4330 nM
same,EC50,"JIYOYE, Lymphoma",5880 nM
same,GI50,"JIYOYE, Lymphoma",5870 nM
same,IC50,"JIYOYE, Lymphoma",5880 nM
same,EC50,"JeKo-1, JeKo-1, Lymphoma",5230 nM
same,GI50,"JeKo-1, JeKo-1, Lymphoma",5210 nM
same,IC50,"JeKo-1, JeKo-1, Lymphoma",5230 nM
same,EC50,"Jurkat, Leukemia",2250 nM
same,GI50,"Jurkat, Leukemia",2240 nM
same,IC50,"Jurkat, Leukemia",2250 nM
same,EC50,"K562, K562, Leukemia",4600 nM
same,GI50,"K562, K562, Leukemia",4580 nM
same,IC50,"K562, K562, Leukemia",4600 nM
same,EC50,"KATO III, Stomach",3280 nM
same,GI50,"KATO III, Stomach",3270 nM
same,IC50,"KATO III, Stomach",3280 nM
same,EC50,"KHOS-240S, Soft Tissue - Osteosarcoma",950 nM
